Assay results taken from patent US11779544B1, “Antithrombotic nanoparticles and methods for treating necrotizing enterocolitis” (University of South Florida, priority 2018, dated 2023).
Structures can show the parent of a compound that is named as a salt.

How the values were obtained:
[1] = tested on: plasma thrombin activity; assay: Plasma thrombin activity in pups pre-treated with PCI-27483 before intestinal injury; type: in vivo, mice; conditions: pre-treatment with PCI-27483
Description: FIGS. 5A-5F. Resident intestinal macrophages release tissue factor to activate thrombin during neonatal intestinal injury. FIG. 5a. Scatterplots (means±SEM) show tissue factor (TF) concentrations in plasma and intestinal tissue at serial time points during neonatal intestinal injury, measured by ELISA. N=6 mice/group; Kruskal Wallis H test with Dunn's post-test for group comparisons, * P<0.05, ** P<0.01 vs. control; FIG. 5b. Plasma thrombin activity in mouse pups with intestinal injury vs. mouse pups first treated with PCI-27483, which inhibits the tissue factor-factor VII extrinsic pathway tenase complex. N=4 mice/group; Kruskal Wallis H test with Dunn's post-test for group comparisons, ***P<0.001 vs. control, ##P<0.01 vs. control treated with PCI-27483; FIG. 5c. Representative fluorescence photomicrographs show immunoreactivity for TF (green) in F4/80^+ (red) resident macrophages in control ileum and colon. […] FIG. 5d Scatter plots on right summarize the fluorescence intensity for TF in control intestinal epithelial cells (IECs), control macrophages, injury IECs, and injury macrophages (top) and in control colonic epithelial cells (CECs), control macrophages, injury CECs, and injury macrophages. […]
To investigate the mechanisms for thrombin activation, tissue factor (TF) concentrations were evaluated during NEC-like intestinal injury. […]

[2] = in vivo; cited from earlier work
[3] = cited from earlier work
[4] = tested on: P10 platelets; assay: Duration of bivalirudin inhibition of thrombin-mediated dense granule discharge after point-exposure and wash; type: cell-based, mice; conditions: platelets treated with bivalirudin in vitro and washed; thrombin 25 ng/mL
Method: FIG. 13. Line diagrams (means±SEM) show mepacrine fluorescence signal released over time from control (blue) and bivalirudin-treated and washed (orange) P10 platelets into the supernatant, following treatment with thrombin (25 ng/mL). Data represent 3 separate experiments; each experiment included platelets pooled from 3 pups; Kruskal Wallis H test with Dunn's post-test for group comparisons; * P<0.05 vs. control.
In vivo assessment was performed for thrombin-mediated platelet activation during neonatal intestinal injury. […] In the next in vivo study, wild-type neonatal mice 3 h into intestinal injury were transfused with platelets expressing enhanced yellow fluorescence protein (YFP; platelets harvested from progeny of PF4-cre mice (C57BL/6-Tg(Cxcl4-cre)Q3Rsko/J)×R26-stop-YFP mutant mice (B6.129X1-Gt(ROSA)26Sortm1(EYFP)Cos/J). In some mice, YFP^+ platelets were pre-treated with bivalirudin prior to transfusion, and CD31 expression was then measured for both the endogenous and the bivalirudin-treated transfused YFP^+ platelets in blood samples drawn 3 h after the transfusion. Bivalirudin-pretreatment curtailed CD31 expression on YFP^+ platelets (FIG. 3c), providing further evidence for a role of thrombin as the primary platelet activator in NEC-like neonatal intestinal injury. […]

[5] = tested on: P10 platelets; assay: Mixing experiment: dense granule discharge (mepacrine release) of control platelets resuspended in intestinal injury plasma; type: cell-based, mice; conditions: mepacrine fluorescence released into supernatant; intestinal injury plasma at 3 h with added inhibitor
Method: FIGS. 12A and 12B. (A) Scatter bar diagrams (means±SEM) show mepacrine fluorescence signal released from control P10 platelets into the supernatant, following resuspension in plasma from pups in (1) control group; (2) intestinal injury at 3 h; and (3) intestinal injury at 3 h with added bivalirudin, a synthetic peptide inhibitor of thrombin. N=6 mice/group; (B) mepacrine fluorescence released from control platelets following resuspension in plasma from (1) control group (N=8 mice); (2) intestinal injury at 3 h (N=12 mice); and (3) intestinal injury at 3 h with added D-phenylalanyl-prolyl-arginyl chloromethyl ketone (PPACK), a different thrombin inhibitor (N=11 mice). Kruskal Wallis H test with Dunn's post-test for group comparisons; * P<0.05, ** P<0.01 vs. control; #P<0.05, ###P<0.001 vs. intestinal injury plasma.
(§1) Neonatal platelets can be hyporesponsive under specific conditions, [Mull M M, Hathaway W E. Altered platelet function in newborns. Pediatr Res. 1970; 4(3):229-237] and therefore, the ability of neonatal murine platelets to respond to thrombin was checked. Treatment of mepacrine-stained P10 platelets with recombinant thrombin ([…]) caused dense granule discharge within 15 min (FIG. 11). […]
(§2) Dense granules were stained with mepacrine (Quinacrine dihydrochloride; Sigma). […] Fluorescence was measured at 436/525 nm.

[6] = tested on: YFP+ platelets; assay: Transfusion of bivalirudin-pretreated YFP+ platelets into pups with intestinal injury, CD31 expression; type: in vivo, mice; conditions: YFP+ platelets pre-treated with bivalirudin prior to transfusion, blood drawn 3 h after transfusion
Method: (§3) FIG. 3b. Plasma from mouse pups with intestinal injury activates platelets via thrombin. […] N=3 mice/group; 2 runs; Kruskal Wallis H test with Dunn's post-test for group comparisons, ** P<0.01 vs. control, #P<0.05 vs. intestinal injury; FIG. 3c Thrombin activates platelets during murine neonatal intestinal injury. YFP^+ platelets were transfused into WT C57BL/6 pups with intestinal injury, and blood samples were drawn after 3 h. […] Treatment of YFP^+ platelets with bivalirudin prior to transfusion blocked activation-related increase in CD31 expression (lower right). […] N=4 mice/group; Kruskal Wallis H test with Dunn's post-test for group comparisons, * P<0.05 vs. untreated YFP^+ platelets, #P<0.05 vs. endogenous platelets in the bivalirudin-treated YFP^+ platelet transfusion group. […]
(§4) Platelet activation markers were measured by flow cytometry, using the following fluorescence-labeled antibodies: JON/A (Emfret); anti-CD62P, anti-CD41/GPIIb, CD61/integrin αvβ3, CD31/PECAM-1 (BioLegend, San Diego, Calif.). Platelets were evaluated by size-gate threshold adjustment with microbeads of known diameter (100 nm to 1.3 μm; Spherotech, Lake Forest, Ill.) in forward and side-scatter. […] Platelet aggregation was measured by impedance method and ATP release by luminometry using a 2-channel Chrono-Log lumi-aggregometer (model 700, Chrono-Log, Havertown, Pa., USA) per established methods. […]

[7] = tested on: platelets from control pups; assay: CD31 expression on control platelets resuspended in intestinal injury plasma; type: cell-based, mice; conditions: bivalirudin 200 ng/mL; platelets resuspended ×45 min
Method: as §3, §4

[8] = tested on: P10 platelets; assay: Recombinant thrombin treatment of mepacrine-stained platelets, dense granule discharge; type: cell-based, mice; conditions: recombinant thrombin (25 μg/mL)
Method: FIGS. 11A and 11B. Scatter bar diagrams (means±SEM) show (A) mepacrine fluorescence signal in platelets isolated from control P10 mice at serial time-points after treatment with recombinant thrombin (25 ng/mL). Fluorescence signal normalized and depicted as percent of control. Data represent 3 separate experiments; each experiment included platelets pooled from 3 pups; (B) mepacrine fluorescence signal released into the supernatant after thrombin stimulation. Kruskal Wallis H test with Dunn's post-test for group comparisons; ** P<0.01,*** P<0.001 vs. control.
as §1, §2

Molecule: N=C(N)c1ccc2nc(-c3cc(CC(=O)N[C@@H](CC(=O)O)C(=O)O)cc(-c4cc(S(N)(=O)=O)ccc4O)c3O)[nH]c2c1 [PCI-27483]
- rise in plasma thrombin activity during intestinal injury [1]: blocked the rise

Molecule: N=C(N)NCCCC(NC(=O)C1CCCN1C(=O)[C@H](N)Cc1ccccc1)C(=O)CCl (stereo partly drawn) [PPACK, D-phenylalanyl-N-[(1S)-4-[(aminoiminomethyl)amino]-1-(2-chloroacetyl)butyl]-L-prolinamide, trifluoroacetate salt]
- distribution half-life [2]: 7 min
- elimination half-life [2]: 2.9 min
- LD50 ([3]; in vivo): greater than 50 mg/kg
- long-term toxicity ([3]; mice): no long-term toxicity

Molecule: bivalirudin: synthetic peptide of 20 amino acids (SEQ ID NO: 1); specific and reversible direct thrombin inhibitor
- time bivalirudin-treated platelets remained refractory to thrombin [4]: ≥ 120 min
- platelet dense granule discharge caused by plasma from mice with intestinal injury [5]: blocked
- CD31 expression on transfused YFP+ platelets [6]: blocked
- CD31 expression on transfused YFP+ platelets ([6]; listed as Bivalirudin): curtailed
- effects of intestinal injury plasma on platelet CD31 expression [7]: blocked

Molecule: recombinant thrombin: Recombinant mouse thrombin (Molecular Innovations), used as platelet activator
- time to dense granule discharge [8]: ≤ 15 min
